What was measured:
[1] = tested on: Mouse, rat cortical or hippocampal primary neurons; test: In vitro drug candidate screening for neurotoxicity, ELISA of cell lysates; assay type: cell-based; details: primary neurons 21 DIV, glutamate 30 min, other agents 24 hours
Protocol: Mouse, rat cortical or hippocampal primary neurons are cultured for 21 DIV, and the dose dependent responses of drugs are investigated. Cultured cells are exposed to various concentrations of: Glutamate (0.01 to 1000 μM) in 10 μM glycine both in HBSS; B) 0.01 to 100 μM Kainate in culture media; C) H2O2 (0.001 to 1000 μM) in culture media; C) Zinc (0.01 to 1000 μM) in culture media; D) U0126 (0.001 to 100 μM) in culture media; and E) and equal volume of culture media as a control. Glutamate treatment is performed for 30 minutes after which the cells are washed and the HBSS is replaced with culture media and analyzed. The remaining candidates are treated for 24 hours and analyzed. The levels of intracellular UCH-L1 and SBDP 145 are analyzed following cell lysis and screening of the lysates by ELISA using anti-UCH-L1 and SBDP 145 specific antibodies. The levels of UCH-L1 are increased following exposure particularly to Glutamate and H2O2.

[2] = tested on: Female Sprague-Dawley rats; test: Acute in vivo drug candidate screening for neurotoxicity, biofluid biomarkers by sandwich ELISA or Western blot; details: rat, i.p., 30, 60, 90, 120 minutes following dosing, methamphetamine 40 mg/kg
Protocol: Anesthesia is performed with intraperitoneal injections of pentobarbital (50 mg/kg). The test substance can also be administered in a single dose by gavage using a stomach tube or a suitable intubation cannula. Animals are fasted prior to dosing. A total of four to eight animals of are used for each dose level investigated.
30, 60, 90, and 120 minutes following dosing, the rats are sacrificed by decapitation and blood is obtained by cardiac puncture. The levels of biofluid UCH-L1 and SBDP 150 and GFAP are analyzed by sandwich ELISA or Western blot by using UCH-L1 and SBDP 150 and GFAP specific antibodies.

[3] = tested on: Male Sprague-Dawley rats; test: Kainic acid neurotoxicity rat model, immunohistochemistry of brain sections; assay type: in vivo
Protocol: (§1) Male Sprague-Dawley rats (Harlan: Indianapolis, Ind.) with weight from 180 to 200 g are used. The rats are allowed free access to a normal laboratory diet and chlorinated potable water. All rats are acclimated for at least one week to the housing facilities and diet before being used in the study. The controls in the animal room are set to maintain a temperature of 20° C. to 24° C. and 30% to 70% relative humidity. Rats are maintained on a twelve-hour light/dark cycle.
(§2) Animals received single subcutaneous injections of Kaininc acid (Sigma, Chemical, St. Louis, Mo., USA) at dose 9 mg/kg and sacrificed at 24 h after injection. Separate control/treatment groups of animals are used. Brain tissues and CSF sample are collected at 6, 24, 48 and 72 h time points after injection.
(§3) At the appropriate time points, animals are anesthetized with 4% isoflurane in oxygen as a carrier gas for 4 minutes, followed by maintenance anesthesia of 2-3% isoflurane in the same carrier gas. The rats are placed in a stereotaxic instrument and about 100 μl of CSF from the cisterna magna of each animal is collected transcutaneously through 25 gauge needle attached to polyethylene tubing. CSF samples are frozen on dry ice immediately after collection. After CSF collection animals are removed from the stereotaxic instrument and anesthesia nose cone and the animal, still under anesthesia, is immediately sacrificed by decapitation. Cortex, hippocampus, cerebellum and striatum will be rapidly dissected out, rinsed in cold PBS and snap frozen in liquid nitrogen. To obtain brain tissue for IHC animals are euthanized with lethal dose of pentobarbital, transcardically perfused with 4% paraformaldehyde and whole brains are removed, processed and embedded in paraffin.
IHC is performed on paraffin-embedded 6 μm brain sections. Slides are deparaffinized, incubated for 10 min at 95° C. in Trilogy solution (Cell Marque, Hot Springs, Ak.) for antigen retrieval, blocked for endogenous peroxides and incubated with 1 Abs (GFAP, SBDP145, SBDP150, SBDP120 and Casp 3) overnight at 4° C. followed by treatments with secondary Abs (LSAB+, # K0679, Dako). The staining is visualized with 3,3′-diaminobenzidine (DAB) (Dako, Carpinteria, Calif.) for brown color development. Sections are counterstained with Hematoxylin (Dako, Carpinteria, Calif.). Negative controls are performed by treatment only with species-matched secondary antibodies.

[4] = tested on: rats; test: Kainic acid neurotoxicity rat model, biomarkers in blood plasma; assay type: in vivo; details: process of Example 5 with blood plasma in lieu of CSF; as a function of time
Description: The process of Example 5 is repeated with blood plasma as the subject sample source the rats in lieu of CSF.

[5] = tested on: Male Sprague-Dawley rats; assay type: in vivo, rat; details: 9 mg/kg s.c., compared with control group
Protocol: as §1, §2, §3
Serum and CSF sample concentrations of UCH-L1 are measured using a UCH-L1 sandwich enzyme-linked immunosorbent assay (ELISA) version lb modified from a protocol previously reported (Papa L. et al., 2010; Liu M. et al., 2009). Both mouse monoclonal antibody (capture antibody) and rabbit polyclonal antibody (detection antibody) are made in-house against recombinant human UCH-L1 full length protein and partial protein respectively). Both are affinity purified using target-protein-based affinity column. Their specificity to only target protein (UCH-L1) is confirmed by immunoblotting. Reaction wells are coated with capture antibody (5 μg/mL purified mouse monoclonal anti-human UCHL1) in 0.05 M sodium bicarbonate, pH 9.6 and incubated overnight at 4° C. […] Finally, the wells are developed with substrate solution: Ultra-TMB ELISA 100 μL/well (Pierce #34028) with incubation for 10 min, plate read at 450 nm with a 96-well spectrophotometer (Molecular Device Spectramax 190).
Serum and CSF sample concentrations of GFAP are measured using a GFAP sandwich enzyme-linked immunosorbent assay (ELISA) version 2a. […]

[6] = tested on: Male Sprague-Dawley rats; test: Kainic acid neurotoxicity rat model, Western blot of brain tissue for αII-spectrin and SBDPs; assay type: in vivo; details: 9 mg/kg s.c.; hippocampus and to a lesser extent cortex
Protocol: as §1, §2, §3
After SDS-gel electrophoresis in Tris-glycine buffer system and electrotransfer, blotting membranes are blocked for 1 hour at ambient temperature in 5% non-fat milk in Tris-buffered saline (TBS) and then in TBS containing 0.05% […] (TBST), then incubated in primary monoclonal anti-αII-spectrin antibodies (Biomol, Plymouth Meeting, Pa., USA) diluted ˜1:3000 (3.5 ul/10 ml) in PBS as recommended by the manufacturer at 4° C. overnight. […] Molecular weight of intact αll-spectrin protein and αll-spectrin breakdown products (SBDPs) are assessed by running alongside rainbow colored molecular weight standards (Amersham, Cat # RPN800V). Semi-quantitative evaluation of levels of αll-spectrin and of its breakdown products SBDP150 and SBDP145 and SBDP120 is performed using computer-assisted high-resolution flatbed scanner Epson XL3500 and densitometric image analysis with Image J software (NIH). […]

[7] = 9 mg/kg s.c., hippocampus and cortex, vs control group

## N[C@@H](CCC(=O)O)C(=O)O [Glutamate]
[1]
  levels of intracellular UCH-L1: increased

## CN[C@@H](C)Cc1ccccc1 [methamphetamine]
[2]
  biofluid GFAP level relative to control animals: increased
[2]; cisplatin 10 mg/kg
  biofluid SBDP 150 level relative to control animals: increased
  biofluid UCH-L1 level relative to control animals: increased

## C=C(C)[C@H]1CN[C@H](C(=O)O)[C@H]1CC(=O)O [KA, Kainic acid]
[3]; [7]
  level of GFAP (IHC): increased level
  level of SBDP120 (IHC): increased level
  level of SBDP145 (IHC): increased level
  level of SBDP150 (IHC): increased level
[3]; hippocampus of KA treated rats, FIG. 5
  level of αII-spectrin breakdown products (histology images): increased level
[3]; hippocampus of KA treated rats, FIG. 7
  level of activated Caspase-3 (histology images): increased level
[4]
  Biomarker levels in blood plasma (UCHL 1, GFAP, NF-H): elevated
[5]
  SBDP120 in CSF (ELISA): buildup
  SBDP145 in CSF (ELISA): buildup
  SBDP150 in CSF (ELISA): buildup
  expression of GFAP in CSF (ELISA): increase
  expression of UCHL 1 in CSF (ELISA): increase
[6]
  SBDP120 breakdown fragment produced by caspase-3 (Western blot): appearance
  SBDP145 breakdown fragment produced by calpain (Western blot): appearance
  SBDP150 breakdown fragment produced by calpain (Western blot): appearance
  intact αII-spectrin level (Western blot): decrease

## OO [H2O2]
[1]
  levels of intracellular UCH-L1: increased
